Data published in paper PMC11224111, “Optimizing the pharmacokinetics of an ^211At-labeled RGD peptide with an albumin-binding moiety via the administration of an albumin-binding inhibitor” (European Journal of Nuclear Medicine and Molecular Imaging, 2024).
Marks after values point to notes of the source that are not given here.

Test: Biodistribution of [^211At]1 and [^125I]2 in normal mice with ibuprofen or IPBA as albumin-binding inhibitor
Conditions: 4 h after administration
Protocol: To evaluate the effects of albumin-binding inhibitors in normal mice, [^211At]1 (37 kBq) and [^125I]2 (37 kBq) were intravenously coadministered. […] The total blood albumin (1.1 µmol) in normal mice was calculated from the albumin concentration (3.0 g/dL ≈ 455 µM) in blood, which was informed from Japan SLC, Inc., total blood volume (2.5 mL) as 8% of body weight, and the molecular weight of albumin as 66,000 g/mol. […]
Table S1. Biodistribution of radioactivity 4 h after administration of [^211At]1 and [^125I]2 in normal mice.

[1] = IPBA 10 eq at 1 h postinjection
[2] = ibuprofen 10 eq at 1 h postinjection

Ga-DOTA-K([^125I]IPBA)-c(RGDfK) [[^125I]2]
Radioactivity, Blood (IPBA 2 eq at 1 h postinjection): 7.26 (0.34)^ ***, a, b % injected activity per gram
Radioactivity, Bone (IPBA 2 eq at 1 h postinjection): 1.22 (0.11) ^a, b % injected activity per gram
Radioactivity, Brain (IPBA 2 eq at 1 h postinjection): 0.20 (0.03)^ *,^ a % injected activity per gram
Radioactivity, Heart (IPBA 2 eq at 1 h postinjection): 2.49 (0.13)^ **,^ a % injected activity per gram
Radioactivity, Kidney (IPBA 2 eq at 1 h postinjection): 3.46 (0.17)^ * % injected activity per gram
Radioactivity, L. intestine (IPBA 2 eq at 1 h postinjection): 1.14 (0.31)^ ** % injected activity per gram
Radioactivity, Liver (IPBA 2 eq at 1 h postinjection): 1.58 (0.12)^ a % injected activity per gram
Radioactivity, Lung (IPBA 2 eq at 1 h postinjection): 4.22 (0.49)^ ***,^ a, b % injected activity per gram
Radioactivity, Muscle (IPBA 2 eq at 1 h postinjection): 1.02 (0.07)^ *,^ a, b % injected activity per gram
Radioactivity, Neck (IPBA 2 eq at 1 h postinjection): 0.32 (0.10) % injected activity
Radioactivity, Pancreas (IPBA 2 eq at 1 h postinjection): 1.41 (0.10)^ *,^ a, b % injected activity per gram
Radioactivity, S. intestine (IPBA 2 eq at 1 h postinjection): 1.28 (0.03)^ **,^ a % injected activity per gram
Radioactivity, Spleen (IPBA 2 eq at 1 h postinjection): 1.15 (0.11)^ *,^ a, b % injected activity per gram
Radioactivity, Stomach (IPBA 2 eq at 1 h postinjection): 1.21 (0.07)^ * % injected activity
Radioactivity, Blood (IPBA 5 eq at 1 h postinjection): 2.06 (0.24)^ ***, a, b, c % injected activity per gram
Radioactivity, Bone (IPBA 5 eq at 1 h postinjection): 0.73 (0.06)^ **,^ a, b, c % injected activity per gram
Radioactivity, Brain (IPBA 5 eq at 1 h postinjection): 0.15 (0.02)^ a % injected activity per gram
Radioactivity, Heart (IPBA 5 eq at 1 h postinjection): 0.83 (0.09)^ **,^ a, b, c % injected activity per gram
Radioactivity, Kidney (IPBA 5 eq at 1 h postinjection): 3.52 (0.08)^ *, b % injected activity per gram
Radioactivity, L. intestine (IPBA 5 eq at 1 h postinjection): 0.87 (0.25) % injected activity per gram
Radioactivity, Liver (IPBA 5 eq at 1 h postinjection): 1.20 (0.12)^ *,^ a, b, c % injected activity per gram
Radioactivity, Lung (IPBA 5 eq at 1 h postinjection): 1.92 (0.16)^ **,^ a, b, c % injected activity per gram
Radioactivity, Muscle (IPBA 5 eq at 1 h postinjection): 0.47 (0.04)^ **,^ a, b, c % injected activity per gram
Radioactivity, Neck (IPBA 5 eq at 1 h postinjection): 0.07 (0.02)^ a % injected activity
Radioactivity, Pancreas (IPBA 5 eq at 1 h postinjection): 0.79 (0.10)^ **,^ a, b, c % injected activity per gram
Radioactivity, S. intestine (IPBA 5 eq at 1 h postinjection): 1.33 (0.14) % injected activity per gram
Radioactivity, Spleen (IPBA 5 eq at 1 h postinjection): 0.93 (0.58)^ a, b % injected activity per gram
Radioactivity, Stomach (IPBA 5 eq at 1 h postinjection): 1.11 (0.34)^ **,^ a % injected activity
Radioactivity, Blood [1]: 0.95 (0.12)^ **, a, b, c, d % injected activity per gram
Radioactivity, Bone [1]: 0.77 (0.07)^ **,^ a, b, c % injected activity per gram
Radioactivity, Brain [1]: 0.15 (0.03)^ a % injected activity per gram
Radioactivity, Heart [1]: 0.58 (0.10)^ ***,^ a, b, c % injected activity per gram
Radioactivity, Kidney [1]: 3.60 (0.43) % injected activity per gram
Radioactivity, L. intestine [1]: 0.98 (0.31) ^*, b % injected activity per gram
Radioactivity, Liver [1]: 0.84 (0.06)^ a, b, c % injected activity per gram
Radioactivity, Lung [1]: 1.33 (0.09)^ ***,^ a, b, c % injected activity per gram
Radioactivity, Neck [1]: 0.03 (0.02)^ b, c, d % injected activity
Radioactivity, Pancreas [1]: 0.60 (0.15)^ a, b, c, d % injected activity per gram
Radioactivity, S. intestine [1]: 1.17 (0.13)^ a % injected activity per gram
Radioactivity, Spleen [1]: 1.00 (0.19)^ **,^ a, b % injected activity per gram
Radioactivity, Stomach [1]: 0.94 (0.12)^ ** % injected activity
Radioactivity, Blood [2]: 10.19 (0.64)^ ***, a % injected activity per gram
Radioactivity, Bone [2]: 1.56 (0.16)^ a % injected activity per gram
Radioactivity, Brain [2]: 0.25 (0.05)^ a % injected activity per gram
Radioactivity, Heart [2]: 3.24 (0.29)^ * % injected activity per gram
Radioactivity, Kidney [2]: 3.10 (0.24) % injected activity per gram
Radioactivity, L. intestine [2]: 1.87 (0.66) ^* % injected activity per gram
Radioactivity, Liver [2]: 1.81 (0.24)^ a % injected activity per gram
Radioactivity, Lung [2]: 6.02 (0.99)^ *,^ a % injected activity per gram
Radioactivity, Muscle [2]: 1.19 (0.07) % injected activity per gram
Radioactivity, Neck [2]: 0.36 (0.12)^ *,^ a % injected activity
Radioactivity, Pancreas [2]: 1.78 (0.09) % injected activity per gram
Radioactivity, S. intestine [2]: 1.49 (0.12)^ * % injected activity per gram
Radioactivity, Spleen [2]: 1.49 (0.18)^ a % injected activity per gram
Radioactivity, Stomach [2]: 1.16 (0.03)^ * % injected activity
Radioactivity, Blood (vehicle at 1 h postinjection): 13.28 (0.80)^ *** % injected activity per gram
Radioactivity, Bone (vehicle at 1 h postinjection): 1.84 (0.12) % injected activity per gram
Radioactivity, Brain (vehicle at 1 h postinjection): 0.38 (0.09) % injected activity per gram
Radioactivity, Heart (vehicle at 1 h postinjection): 4.05 (0.98) % injected activity per gram
Radioactivity, Kidney (vehicle at 1 h postinjection): 3.32 (0.15) % injected activity per gram
Radioactivity, L. intestine (vehicle at 1 h postinjection): 1.59 (0.38) % injected activity per gram
Radioactivity, Liver (vehicle at 1 h postinjection): 2.51 (0.07) % injected activity per gram
Radioactivity, Lung (vehicle at 1 h postinjection): 7.38 (0.61)^ * % injected activity per gram
Radioactivity, Muscle (vehicle at 1 h postinjection): 1.28 (0.06) % injected activity per gram
Radioactivity, Neck (vehicle at 1 h postinjection): 0.13 (0.03)^ * % injected activity
Radioactivity, Pancreas (vehicle at 1 h postinjection): 1.81 (0.05) % injected activity per gram
Radioactivity, S. intestine (vehicle at 1 h postinjection): 1.94 (0.14)^ ** % injected activity per gram
Radioactivity, Spleen (vehicle at 1 h postinjection): 2.11 (0.08) % injected activity per gram
Radioactivity, Stomach (vehicle at 1 h postinjection): 0.80 (0.12) % injected activity
